US8703964B2, “Bendamustine cyclopolysaccharide compositions” (Supratek Pharma Inc., priority 2009, dated 2014)

How the values were obtained:
[1] = Pharmacokinetics of bendamustine dosed to rats, composition with SBECD and protamine sulphate (Example 13); format: in vivo; settings: female, Sprague-Dawley, rat, plasma, iv, i.v. 10 mg/kg, read-out: Concentration of bendamustine in rat plasma, Mean (SEM)
Method: Control: 2.5 mg/mL bendamustine hydrochloride, 4.25 mg/mL of mannitol in 0.9% NaCl; dose of 10 mg/kg
Inventive Composition: 2.5 mg/mL bendamustine hydrochloride, 40% w/w sodium sulfobutyl ether β-cyclodextrin, 3% protamine sulfate, 4.3 mg/g mannitol in water (produced according to the process described in Example 10); dose of 10 mg/kg.
Female Sprague-Dawley rats (250-350 g). The animals were kept three per cage with an air filter cover under light (12 h light/dark cycle, light on at 06 h00) and controlled temperature of 22° C.+/−1° C. All manipulations with the animals were performed under a sterilized laminar hood. The animals had ad libitum access to Purina mouse chow and water. The animals were fasted overnight and anesthetized, before dosing. Dosing and Sampling: Bendamustine composition and control were administered intravenously to rats in tail vein. After time intervals 5, 15, 30, 45 min, 1, 1.5, 2 and 3 hrs post-injection, the blood samples were collected. The rats were anesthetized by general inhalation of isoflurane. The blood samples were collected from the jugular vein with heparinized tube and kept on ice. Blood was immediately centrifuged, and plasma was separated. The plasma samples were immediately extracted. Sample Extraction and Analysis: The plasma samples 0.100 mL were transferred to plastic tubes. The samples were extracted with 0.400 mL of 100 mM HCl in acetonitrile while being shaken vigorously for 30 seconds. The samples were centrifuged at 10000 RPM for 5 minutes. The supernatant was separated. The samples were frozen in dry ice and kept at −80° C. until HPLC analysis. 20 microliter aliquots were injected into HPLC for analysis. The HPLC conditions: C18 reversed phase column 50×4.6 mm, Symmetry/Shield 3.5 micrometer Column temperature 30° C. Flow rate 1.5 mL/min Injection volume 20 microliters Fluorescence detection at wavelengths: excitation 327 nm, emission 420 nm Mobile phase: Buffer A: 5% acetonitrile 0.1% TFA Buffer B: 90% acetonitrile 0.1% TFA Run time: 10 min The improved pharmacokinetic profiles of Bendamustine for tested composition versus the control is shown in Table 3 below.

[2] = system: Human breast carcinoma MDA-MB 231 s.c. solid tumors; assay: Human breast carcinoma MDA-MB 231 s.c. solid tumors in nude mice (Example 28); format: in vivo, balb/c nu/nu mice; settings: for Tumor weight after treatment, Average (SEM): 30 mg/kg days 1, 2, 9, 10
Method: balb/c mice aged 5 to 6 weeks were purchased from Charles River Canada Inc. The animals were kept 5 per cage with an air filter cover under light (12 light/dark cycle, light on at 6 H00) and temperature (22° C.±1° C.)-controlled environment. All manipulations of animals were performed under a sterilized laminar hood. The animals had ad libitum access to Purina mouse chow (Pro Lab PMH 4018, Trademark of Agway, Syracuse, N.Y.) and water. These animal studies were conducted according to the “Guidelines for Care and Use of Experimental Animals”. Tumor Cell Culture: Human breast cancer cells MDA-MB 231 were cultured in the appropriated culture medium. The cells were harvested in their logarithmic growth phase for the preparation of tumor implantation. Tumor Implantation: Human tumor or myeloma cells (2.5 to 5.0×10^6 cells) were implanted subcutaneously in 0.200 mL of medium containing 30% Matrigel on the two flanks of balb/c nu/nu mice through a 1 to 2 cm long 20-gauge needle. Treatments: 2 to 3 weeks after tumor cell implantation, animals that developed s.c. solid tumors were selected and divided into several homogeneous groups (n=5 animals per group or dose) with respect to tumor size (0.5 to 0.8 cm in diameter). The treatments were performed next day. The animals were dosed with the following dosing solutions. Control: (0.9%, NaCl) Compositions:
Subcutaneous solid tumor measurements were performed on the day of first injection and at 3- to 4-day intervals thereafter. The two largest perpendicular diameters of each tumor were measured with calipers and tumor sizes were estimated using the formula: TV=L×W/2 where TV: tumor volume; L: length; W: width. The body weights of animals were also noted.
The experiment was performed as described in example 27, using the following compositions for treatment:
non-formulated bendamustine, (30 mg/kg)
Bendamustine (30 mg/kg) in 40% SBECD (formulated BM)
The treatment was performed on days 1, 2, 9, and 10.

[3] = Bendamustine chemical stability in plasma, HPLC (Example 31); format: in vitro ADME; settings: heparinized human plasma, 37° C., initially 0.015 mg/mL bendamustine; read-out: T½ in plasma (decomposition half time)
Method: Heparinized human plasma was spiked, 20 μL into 780 μL of plasma, with the following bendamustine (BM) compositions:
The concentration of bendamustine in plasma after spiking was initially 0.015 mg/mL. The spiked plasma samples were incubated at 37° C. A sample of 50 μL was periodically withdrawn from spiked plasma, and transferred into 200 μL of 100 mM HCl solution in acetonitrile, mixed and centrifuged. 50 μL of the supernatant was diluted 20 times with 95% acetonitrile, then 20 μL of diluted samples were separated on Waters SymmetryShield RP18 3.5 μm column (4.6×50 mm) using gradient of acetonitrile (0.1% TFA) in water (0.1% TFA), flow 1.5 mL/min. Peak detection was performed by means of fluorescence detection with […] at 327 nm and emission at 420 nm. The area of the peak of Bendamustine was used to evaluate the rate of drug decomposition in the first order kinetics model.

## Cn1c(CCCC(=O)O)nc2cc(N(CCCl)CCCl)ccc21 [BM, 4-[5-[bis(2-chloroethyl)amino]-1-methylbenzimidazol-2-yl]butanoic acid]
[1]; 0.08 h post injection
  concentration at 0.08 h: 6040 ng/mL
[1]; 0.25 h post injection
  concentration at 0.25 h: 2430 ng/mL
[1]; 0.5 h post injection
  concentration at 0.5 h: 520 ng/mL
[1]; 0.75 h post injection
  concentration at 0.75 h: 145 ng/mL
[1]; 1 h post injection
  concentration at 1 h: 48 ng/mL
[1]; 1.5 h post injection
  concentration at 1.5 h: 8 ng/mL
[1]; 2 h post injection
  concentration at 2 h: 2 ng/mL
[1]; 3 h post injection
  concentration at 3 h: 0 ng/mL
[2]; day 0
  Tumor weight after treatment, Average (SEM): 0.203 (0.028) g
[2]; day 2
  Tumor weight after treatment, Average (SEM): 0.238 (0.023) g
[2]; day 5
  Tumor weight after treatment, Average (SEM): 0.267 (0.022) g
[2]; day 7
  Tumor weight after treatment, Average (SEM): 0.313 (0.028) g
[2]; day 9
  Tumor weight after treatment, Average (SEM): 0.388 (0.045) g
[2]; day 12
  Tumor weight after treatment, Average (SEM): 0.497 (0.060) g
[2]; day 14
  Tumor weight after treatment, Average (SEM): 0.550 (0.075) g
[2]; day 16
  Tumor weight after treatment, Average (SEM): 0.594 (0.084) g
[2]; day 19
  Tumor weight after treatment, Average (SEM): 0.684 (0.098) g
[2]; 30 mg/kg, Day 1, 2, 9, 10
  Real Tumor weight on day 19 in autopsy: 0.275 ± 0.052 g
  Tumor weight on day 19 estimated from measurements of the tumor size: 0.684 ± 0.10 g
[3]
  half-life at 0.015 mg/mL: 2.05 h
